Key:
humans = details: cited from earlier work
D2 receptors = D2 receptors (Homo sapiens, UniProt P14416); details: literature and data on file; cited from earlier work
5-HT1A receptor = target: T1, 5-HT1A receptor (Homo sapiens, UniProt P08908); details: literature and data on file; cited from earlier work
T1 sequence (P08908 1-422): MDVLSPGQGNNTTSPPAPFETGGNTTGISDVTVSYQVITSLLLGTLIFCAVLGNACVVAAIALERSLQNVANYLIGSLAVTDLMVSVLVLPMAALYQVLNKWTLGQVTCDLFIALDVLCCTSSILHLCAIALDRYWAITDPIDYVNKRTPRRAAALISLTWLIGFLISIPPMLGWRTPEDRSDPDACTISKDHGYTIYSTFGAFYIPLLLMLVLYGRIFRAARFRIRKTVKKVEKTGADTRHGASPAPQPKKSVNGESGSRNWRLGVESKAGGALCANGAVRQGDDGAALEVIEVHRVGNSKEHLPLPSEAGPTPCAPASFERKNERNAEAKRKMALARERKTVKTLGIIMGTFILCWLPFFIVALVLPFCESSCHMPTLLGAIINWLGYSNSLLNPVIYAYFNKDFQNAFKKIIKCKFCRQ

5-HT2A receptor = 5-HT2A receptor (Homo sapiens, UniProt P28223); details: cited from earlier work
5-HT2A receptor, sequence (P28223 whole entry): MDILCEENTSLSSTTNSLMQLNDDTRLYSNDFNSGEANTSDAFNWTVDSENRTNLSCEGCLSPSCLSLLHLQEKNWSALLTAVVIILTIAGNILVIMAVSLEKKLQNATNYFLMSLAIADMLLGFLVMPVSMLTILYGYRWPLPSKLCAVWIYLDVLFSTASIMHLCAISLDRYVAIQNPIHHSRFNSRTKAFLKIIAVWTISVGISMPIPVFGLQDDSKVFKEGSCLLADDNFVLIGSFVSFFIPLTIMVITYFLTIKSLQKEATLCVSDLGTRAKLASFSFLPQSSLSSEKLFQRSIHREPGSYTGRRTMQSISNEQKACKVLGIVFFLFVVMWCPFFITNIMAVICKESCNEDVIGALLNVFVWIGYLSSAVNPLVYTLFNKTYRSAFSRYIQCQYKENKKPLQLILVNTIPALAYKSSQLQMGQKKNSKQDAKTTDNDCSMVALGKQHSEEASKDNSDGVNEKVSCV

5-HT transporter (SERT) [1] = target: T2, 5-HT transporter (SERT) (Homo sapiens, UniProt P31645); assay: interaction with the 5-HT transporter; details: data on file
T2 sequence (P31645 whole entry, species assumed): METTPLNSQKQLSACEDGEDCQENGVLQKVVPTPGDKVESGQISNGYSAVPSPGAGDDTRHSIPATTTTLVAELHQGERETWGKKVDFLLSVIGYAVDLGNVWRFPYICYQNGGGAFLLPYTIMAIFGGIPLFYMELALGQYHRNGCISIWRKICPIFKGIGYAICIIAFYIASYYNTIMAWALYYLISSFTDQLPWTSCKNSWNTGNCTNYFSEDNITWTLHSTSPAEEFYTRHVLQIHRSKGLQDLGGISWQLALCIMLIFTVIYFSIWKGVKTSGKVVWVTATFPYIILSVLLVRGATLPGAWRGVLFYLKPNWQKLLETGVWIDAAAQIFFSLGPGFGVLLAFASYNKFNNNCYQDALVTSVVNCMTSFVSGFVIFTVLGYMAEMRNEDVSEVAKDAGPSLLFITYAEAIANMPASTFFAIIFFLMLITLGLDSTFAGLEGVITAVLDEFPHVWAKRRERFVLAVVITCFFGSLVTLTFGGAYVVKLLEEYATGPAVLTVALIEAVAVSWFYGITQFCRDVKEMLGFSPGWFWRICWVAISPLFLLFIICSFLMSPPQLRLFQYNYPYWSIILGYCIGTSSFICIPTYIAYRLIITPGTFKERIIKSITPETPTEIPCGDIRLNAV

5-HT transporter (SERT) [2] = target: T2, 5-HT transporter (SERT); details: cited from earlier work

D2 receptors, sequence (P14416 whole entry): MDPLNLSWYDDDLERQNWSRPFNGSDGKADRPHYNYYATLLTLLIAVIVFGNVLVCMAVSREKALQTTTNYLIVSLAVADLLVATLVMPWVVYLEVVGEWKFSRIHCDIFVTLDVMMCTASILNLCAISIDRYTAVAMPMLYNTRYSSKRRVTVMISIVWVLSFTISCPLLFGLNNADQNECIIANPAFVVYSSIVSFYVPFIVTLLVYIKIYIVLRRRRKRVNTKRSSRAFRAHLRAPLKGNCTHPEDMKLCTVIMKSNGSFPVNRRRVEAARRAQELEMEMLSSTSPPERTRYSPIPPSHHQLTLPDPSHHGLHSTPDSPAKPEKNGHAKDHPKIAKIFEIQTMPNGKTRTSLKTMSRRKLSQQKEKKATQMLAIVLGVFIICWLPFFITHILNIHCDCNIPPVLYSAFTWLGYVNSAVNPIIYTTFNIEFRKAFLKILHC

COc1cc(CCN)c(OC)cc1C [2C-D, 2,5-dimethoxy-4-methylphenethylamine]
duration of action / psychoactive effects (humans): 4 to 6 h | psychoactive dose in humans (full active doses / human potency) (humans): 20 to 60 mg

C#Cc1cc(OC)c(CCN)cc1OC.Cl [2C-YN, 2,5-Dimethoxy-4-ethynylphenethylamine hydrochloride]
duration of action / psychoactive effects (humans): 2 to 3 h

COc1cc(CC(C)N)c(OC)cc1C (centres unmarked) [DOM, 2,5-dimethoxy-4-methylamphetamine]
D2 receptor affinity (D2 receptors): no affinity | duration of action / psychoactive effects (humans): 14 to 20 h | psychoactive dose in humans (full active doses / human potency) (humans): 3 to 10 mg | psychoactive dose, off of baseline (humans): 1 mg | time to first subjective effects (humans): 30 min | time to full effects (onset of action) (humans): up to 2 hours | 5-HT1A receptor affinity (5-HT1A receptor): very low affinity | 5-HT2A receptor affinity (5-HT2A receptor): high affinities | interaction with the SERT (5-HT transporter (SERT) [1]): do not interact

CCN(CC)C(=O)[C@@H]1C=C2c3cccc4[nH]cc(c34)C[C@H]2N(C)C1 [LSD, lysergic acid diethylamide]
duration of action / psychoactive effects (humans): 8 to 12 h

CN(C)CCc1c[nH]c2cccc(O)c12 [Psilocin]
action at the SERT (5-HT transporter (SERT) [2]): inhibits

COc1cc(CCN)cc(OC)c1OC [mescaline]
D2 receptor affinity (D2 receptors): no affinity | 5-HT2A receptor affinity (5-HT2A receptor): very weak

COc1cc(C)cc(OC)c1CC(C)N (centres unmarked) [ψ-DOM, 2,6-dimethoxy-4-methylamphetamine]
duration of action / psychoactive effects (humans): 6 to 8 h | psychoactive dose in humans (full active doses / human potency) (humans): 15 to 25 mg | dose relative to DOM (humans; higher dose than DOM): 3- to 5 fold | 5-HT2A binding affinity in comparison to DOM (5-HT2A receptor): approximately three-fold lower
